# Test results from US20220403326A1, “MEDIA FORMULATIONS AND METHODS FOR PRODUCING PROGENITOR T CELLS” (priority 2019, published 2022).
# System: CD34+ HSPCs
# Assay: TPO requirement with or without TNFα, 14-day culture
# Format: cell-based, human
# Details: 14 days
# Description: To assess the requirement for TPO in T lineage development, CD34+ HSPCs were analyzed by flow cytometry after 14 days in the presence or absence of TNFα, and further in the presence or absence of TPO.
substance,measurement,value
TNFα,T lineage development in the absence of TPO,supports T lineage development in the absence of TPO
